Read-outs that look alike come from different tables or passages of the source.
What was measured:
[1] = biological target: T1, human cannabinoid CB2 receptor (Homo sapiens, UniProt P34972); assay: In vitro affinity for cannabinoid-CB2 receptors ([3H]CP-55,940 radioligand binding, CHO cell membranes)
T1 construct: expressed in transfected cells; host or cells: Chinese hamster ovary (CHO) cells, membrane preparation
Protocol: (§1) The affinity of the compounds of the invention for cannabinoid CB2 receptors can be determined using membrane preparations of Chinese hamster ovary (CHO) cells in which the human cannabinoid CB2 receptor is stably transfected in conjunction with [^3H]CP-55,940 as radioligand. After incubation of a freshly prepared cell membrane preparation with the [^3H]-ligand, with or without addition of compounds of the invention, separation of bound and free ligand is performed by filtration over glassfiber filters. Radioactivity on the filter is measured by liquid scintillation counting.
The affinity of the compounds of the invention for cannabinoid CB2 receptors was determined as described above. From the binding affinity measured for a given compound of formula (I), one can estimate a theoretical lowest effective dose. At a concentration of the compound equal to twice the measured Ki-value, […] of the cannabinoid CB2 receptors likely will be occupied by the compound. Converting that concentration to mg of compound per kg of patient yields a theoretical lowest effective dose, assuming ideal bioavailability. Pharmacokinetic, pharmacodynamic, and other considerations may alter the dose actually administered to a higher or lower value. The dosage expediently administered is 0.001-1000 mg/kg, such as 0.1-100 mg/kg of patient's bodyweight.

[2] = biological target: T2, human cannabinoid CB1 receptor (Homo sapiens, UniProt P21554); assay: In vitro affinity for cannabinoid-CB1 receptors ([3H]CP-55,940 radioligand binding, CHO cell membranes)
T2 construct: expressed in transfected cells; host or cells: Chinese hamster ovary (CHO) cells, membrane preparation
T2 sequence (P21554 whole entry): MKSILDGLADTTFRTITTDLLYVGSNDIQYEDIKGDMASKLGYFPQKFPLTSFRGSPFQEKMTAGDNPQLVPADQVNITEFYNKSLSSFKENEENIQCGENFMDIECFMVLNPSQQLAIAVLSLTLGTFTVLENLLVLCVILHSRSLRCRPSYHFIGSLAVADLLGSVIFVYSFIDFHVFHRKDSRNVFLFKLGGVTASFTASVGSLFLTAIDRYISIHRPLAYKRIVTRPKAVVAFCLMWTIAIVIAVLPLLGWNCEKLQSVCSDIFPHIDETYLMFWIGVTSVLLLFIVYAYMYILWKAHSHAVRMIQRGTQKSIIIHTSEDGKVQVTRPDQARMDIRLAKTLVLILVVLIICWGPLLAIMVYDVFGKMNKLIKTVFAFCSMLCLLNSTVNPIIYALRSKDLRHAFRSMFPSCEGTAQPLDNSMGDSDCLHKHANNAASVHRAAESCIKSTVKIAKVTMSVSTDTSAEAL
Protocol: as §1, with “CB1” for “CB2”

[3] = membranes of CHO cells stably transfected with human CB2 receptor, [3H]CP-55,940 radioligand, read-out: Human cannabinoid-CB2 receptor In vitro affinity - pKi value (converted)

T1 sequence (P34972 whole entry): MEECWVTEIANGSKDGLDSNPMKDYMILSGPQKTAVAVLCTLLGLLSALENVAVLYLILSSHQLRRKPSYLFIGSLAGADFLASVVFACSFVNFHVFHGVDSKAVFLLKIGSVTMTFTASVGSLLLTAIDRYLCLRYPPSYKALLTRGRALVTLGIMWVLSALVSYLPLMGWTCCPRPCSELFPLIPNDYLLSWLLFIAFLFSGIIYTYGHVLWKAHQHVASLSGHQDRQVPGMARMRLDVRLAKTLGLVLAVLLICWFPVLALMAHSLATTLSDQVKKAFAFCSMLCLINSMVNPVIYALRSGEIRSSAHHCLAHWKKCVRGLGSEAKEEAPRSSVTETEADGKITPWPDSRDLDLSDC

Row | Compound | melting point [°C] | other results
1 | Cc1c(C(=O)NC23CC4CC(CC(C4)C2)C3)ncn1Cc1ccccc1 | 182 to 184 | –
2 | Cc1c(C(=O)N[C@H]2C(C)(C)[C@H]3CC[C@]2(C)C3)ncn1CCCNS(C)(=O)=O | 149 to 156 | –
3 | O=C(NC12CC3CC(CC(C3)C1)C2)c1nc(Br)n(-c2ccccc2)c1Br | 228 to 231 | –
4 | Cc1c(C(=O)Nc2cccc3ccccc23)ncn1-c1ccccc1 | 167 to 169 | –
5 | O=C(NC12CC3CC(CC(C3)C1)C2)c1nc(Cl)n(-c2ccccc2)c1Cl | 172 to 173 | –
6 | Cc1nc(C(=O)Nc2cccc3ccccc23)c(C)n1-c1ccccc1.Cl | 177 to 179 | –
7 | Cc1nc(C(=O)N[C@@H]2C(C)(C)C3CC[C@@]2(C)C3)c(C)n1-c1ccccc1 | 130 to 132 | –
8 | Cc1c(C(=O)N[C@H]2C(C)(C)[C@H]3CC[C@]2(C)C3)ncn1-c1ccccc1 | 149 to 152 | –
9 | Cc1nc(C(=O)NC23CC4CC(CC2C4)C3)c(C)n1-c1ccccc1 | 147 to 150 | –
10 | Cc1nc(C(=O)Nc2ccnc3cc(C(F)(F)F)ccc23)c(C)n1-c1ccccc1 | 198.5 | –
11 | Cc1nc(C(=O)Nc2ccc(C#N)c3ccccc23)c(C)n1-c1ccccc1 | 241.5 | –
12 | CCCCc1c(C(=O)NC23CC4CC(CC(C4)C2)C3)nc(C)n1-c1ccccc1 | 171 to 172 | –
13 | Cc1nc(C(=O)NC23CC4CC(CC(C4)C2)C3)c(C)n1-c1ccc2c(c1)OCCO2.Cl | 221 to 223 | –
14 | Cc1nc(C(=O)NN2CCCCC2)c(C)n1-c1ccccc1 | 117 to 118 | –
15 | CCc1nc(C(=O)Nc2cccc3ccccc23)c(CC)n1-c1ccccc1 | 123 to 125 | –
16 | COC(=O)[C@H](Cc1ccccc1)NC(=O)c1cn(CCOc2ccccc2)cn1 [BMS-I, reference compound] | – | Ki [1]: 398 nM
17 | COC(=O)[C@H](Cc1ccccc1)NC(=O)c1cn(CCN2CCOCC2)cn1 [BMS-II, reference compound] | – | Ki [1]: > 1000 nM
18 | CCCCCn1cnc(C(=O)N[C@@H](Cc2ccccc2)C(=O)OC)c1 [BMS-III, reference compound] | – | Ki [1]: 63.1 nM
19 | Cc1c(C(=O)NC23CC4CC(CC(C4)C2)C3)ncn1-c1ccccc1 [Compound 2] | 214 to 219 | –
20 | Cc1c(C(=O)N[C@H]2C[C@H]3CC[C@]2(C)C3(C)C)ncn1-c1ccccc1 [Compound 4] | 209 to 212 | –
21 | O=C(NC12CC3CC(CC(C3)C1)C2)c1cn(-c2ccccc2)cn1 [Compound 6] | 198 to 200 | –

Row | Compound | melting point [°C] | other results
22 | O=C(NC1C2CC3CC(C2)CC1C3)c1cn(-c2ccccc2)cn1 (stereo not drawn) [Compound 7] | 232 to 234 | –
23 | Cc1nc(C(=O)NC23CC4CC(CC(C4)C2)C3)cn1-c1ccccc1 [Compound 8, N-adamantyl-2-methyl-1-phenyl-1H-imidazole-4-carboxamide] | 207 to 210 | –
24 | Cc1nc(C(=O)NCC2CCC3C(C)(C)C34CC24)cn1-c1ccccc1 (stereo not drawn) [Compound 9] | 124 to 127 | –
25 | Cc1nc(C(=O)NC23CC4CC(CC(C4)C2)C3)c(C)n1-c1ccccc1 [Compound 11] | – | Ki [2]: > 1000 nM; Ki [1]: 1 nM
26 | COc1cccc(-n2c(C)nc(C(=O)NCC3CCC4C(C)(C)C45CC35)c2C)c1 (stereo not drawn) [Compound 12] | 153 to 155 | –
27 | Cc1nc(C(=O)NC23CC4CC(CC(C4)C2)C3)c(C)n1C1CCCCC1 [Compound 14] | – | Ki [2]: > 1000 nM; Ki [1]: 6.31 nM
28 | CCc1c(C(=O)NC23CC4CC(CC(C4)C2)C3)nc(C)n1-c1ccccc1 [Compound 15] | – | Ki [2]: 631 nM; Ki [1]: < 1 nM
29 | CCc1nc(C(=O)NC23CC4CC(CC(C4)C2)C3)cn1-c1ccccc1 [Compound 20] | – | Ki [2]: 251 nM; Ki [1]: 10 nM
30 | Cc1c(C(=O)NCC2CCC3C(C)(C)C34CC24)ncn1CCCNS(C)(=O)=O (stereo not drawn) [Compound 22] | 84 to 108 | –
31 | CCCCCCC(=O)c1nc(C)n(-c2ccccc2)c1C [Compound 26] | – | Ki [1, 3]: 158 nM
32 | O=C(NC12CC3CC(CC(C3)C1)C2)c1ncn(-c2ccccc2)c1Br [Compound 27, N-(adamant-1-yl)-5-bromo-1-phenyl-1H-imidazole-4-carboxamide] | 229 to 232 | –
33 | Cc1nc(C(=O)NC23CC4CC(CC(C4)C2)C3)c(Br)n1-c1ccccc1 [Compound 33A] | – | Ki ([2]; membranes of CHO cells stably transfected with human CB1 receptor, [3H]CP-55,940 radioligand, read-out: Human cannabinoid-CB1 receptor In vitro affinity - pKi (converted)): 794 nM; Ki [1]: 6.31 nM
34 | Cc1nc(C(=O)NC23CC4CC(CC(C4)C2)C3)c(Cl)n1-c1ccccc1 [Compound 33] | – | Ki [1]: 7.94 nM
35 | Cc1nc(C(=O)NCc2ccccc2C(F)(F)F)c(C)n1-c1ccccc1 [Compound 44] | 76 to 79 | Ki [1, 3]: 1.58 nM
36 | Cc1nc(C(=O)Nc2cccc3ncccc23)c(C)n1-c1ccccc1 [Compound 46] | 139 to 141 | –
37 | Cc1nc(C(=O)NC23CC4CC(CC(O)(C4)C2)C3)c(C)n1-c1ccccc1 [Compound 48, N-(3 hydroxyadamant-1-yl)-2,5-dimethyl-1-phenyl-1H-imidazole-4-carboxamide] | 215 to 220 | –
38 | Cc1nc(C(=O)NC2C3CC4CC(C3)CC2C4)c(C)n1-c1ccccc1 (stereo not drawn) [Compound 49] | 245 to 247 | Ki [2]: > 1000 nM; Ki [1]: 2.51 nM
39 | Cc1c(C(=O)NC23CC4CC(CC(C4)C2)C3)nc(C(F)(F)F)n1-c1ccccc1 [Compound 64] | 170 to 172 | –
40 | Cc1nc(C(=O)Nc2cccc(Cl)c2Cl)c(C)n1-c1ccccc1 [Compound 65, N-(2,3-dichlorophenyl)-2,5-dimethyl-1-phenyl-1H-imidazole-4-carboxamide] | 127 to 129 | –
41 | Cc1nc(C(=O)NC2CCCCCCC2)c(C)n1-c1ccccc1 [Compound 72] | – | Ki [1]: 5.01 nM
42 | N-[(1R,2S,5R)-rel-6,6-dimethylbicyclo[3.1.1]heptan-2-methyl]-5-methyl-1-phenyl-1H-imidazole-4-carboxamide [Compound 1] | – | Human cannabinoid-CB1 receptor In vitro affinity - pKi ([2]; membranes of CHO cells stably transfected with human CB1 receptor, [3H]CP-55,940 radioligand): <6.0; Human cannabinoid-CB2 receptor In vitro affinity - pKi value ([1]; membranes of CHO cells stably transfected with human CB2 receptor, [3H]CP-55,940 radioligand): 7.3

Source: patent US8937184B2, “1H-imidazole derivatives as cannabinoid CB2 receptor modulators” (Abbvie B.V., priority 2005, dated 2015)
